Data: patent US20040010001A1, “Methods and compositions for modulating cell proliferation and cell death” (priority 1999, published 2004)
Where two headings read alike, the source gives them in different places.

What was measured:
[1] = system: Human prostate PC3 tumor cells; assay: aFGF/bFGF-induced resistance and reversal by suramin, sulforhodamine B assay; type: cell-based
Method: The experimental conditions are described briefly below. […] Cell number was measured using the sulforhodamine B assay which measures the total protein concentration. […] The FGF-induced resistance was dependent on the FGF concentrations, with a higher resistance at higher FGF concentrations.

[2] = system: Human prostate PC3 tumor cells; assay: Drug treatment and extracellular bFGF (ELISA), LDH release, cell number; type: cell-based; settings: for Extracellular LDH, % of control / Extracellular bFGF, % of control / Extracellular concentration bFGF / bFGF:LDH ratio: 72 hours
Method: The experimental conditions are described briefly below. […] The remaining cell number at the end of treatment was counted using a Coulter counter. The extracellular bFGF concentration was measured using ELISA. The release of lactate dehydrogenase (LDH) into the extracellular culture medium is indicative of cell death and gives a measure of the release of cellular content into the culture medium. If the increase in extracellular bFGF level is due to the release of bFGF upon cell death and lysis, the increase in bFGF will be accompanied by an increase in LDH in the same extent. This would result in an higher bFGF level and a constant bFGF-to-LDH ratio. On the other hand, an increase in extracellular bFGF due to an increase in bFGF production and release of bFGF from cells by processes other than cell lysis will result in an higher bFGF level and an higher bFGF-to-LDH ratio.

[3] = Homo sapiens, read-out: IC50, Control (drug treatment only, without FGF treatment), No suramin, drug 96 hours
[4] = Homo sapiens, read-out: IC50, aFGF 0.3 ng/ml + bFGF 1 ng/ml, No suramin, FGF pretreatment 96 hours, drug 96 hours
[5] = Homo sapiens, read-out: IC50, aFGF 1 ng/ml + bFGF 3 ng/ml, No suramin, FGF pretreatment 96 hours, drug 96 hours
[6] = no suramin, relative to control
[7] = read-out: IC50, Control (without FGF treatment), Suramin, 15 μM, drug 96 hours with 15 μM suramin
[8] = read-out: IC50, aFGF 0.3 ng/ml + bFGF 1 ng/ml, With suramin, FGF pretreatment 96 hours, drug 96 hours with 15 micromolar suramin
[9] = read-out: IC50, aFGF 1 ng/ml + bFGF 3 ng/ml, With suramin, FGF pretreatment 96 hours, drug 96 hours with 15 micromolar suramin

SMILES: CC[C@]1(O)C[C@@H]2CN(CCc3c([nH]c4ccccc34)[C@@](C(=O)OC)(c3cc4c(cc3OC)N(C)[C@H]3[C@@](O)(C(=O)OC)[C@H](OC(C)=O)[C@]5(CC)C=CCN6CC[C@]43[C@@H]65)C2)C1 [Vinblastine]
- IC50 [1, 3]: 0.33 nM
- IC50 [1, 4]: 0.45 nM
- IC50 [1, 5]: 0.78 nM
- Resistance, Folds, aFGF 0.3 ng/ml + bFGF 1 ng/ml [1, 6]: 1.36 Folds
- Resistance, Folds, aFGF 1 ng/ml + bFGF 3 ng/ml [1, 6]: 2.36 Folds
- IC50 [1, 7]: 0.4 nM
- IC50 [1, 8]: 0.42 nM
- IC50 [1, 9]: 0.35 nM
- Remaining cell number at 72 hours (% of control) ([2]; drug concentration 0.5 NM): 74%
- Remaining cell number at 72 hours × 10^6 ([2]; drug concentration 0.5 NM): 1.7 × 10^6
- Extracellular LDH, % of control ([2]; drug concentration 0.5 NM): 263 % of control
- Extracellular bFGF, % of control ([2]; drug concentration 0.5 NM): 675 % of control
- Extracellular concentration bFGF ([2]; drug concentration 0.5 NM): 59.1 pg/mL
- bFGF:LDH ratio ([2]; drug concentration 0.5 NM): 2.57
- Remaining cell number at 72 hours (% of control) ([2]; drug concentration 1 NM): 43%
- Remaining cell number at 72 hours × 10^6 ([2]; drug concentration 1 NM): 1.0 × 10^6
- Extracellular LDH, % of control ([2]; drug concentration 1 NM): 326 % of control
- Extracellular bFGF, % of control ([2]; drug concentration 1 NM): 1073 % of control
- Extracellular concentration bFGF ([2]; drug concentration 1 NM): 94.0 pg/mL
- bFGF:LDH ratio ([2]; drug concentration 1 NM): 3.29
- Remaining cell number at 72 hours (% of control) ([2]; drug concentration 2 NM): 17%
- Remaining cell number at 72 hours × 10^6 ([2]; drug concentration 2 NM): 0.4 × 10^6
- Extracellular LDH, % of control ([2]; drug concentration 2 NM): 513 % of control
- Extracellular bFGF, % of control ([2]; drug concentration 2 NM): 2046 % of control
- Extracellular concentration bFGF ([2]; drug concentration 2 NM): 179 pg/mL
- bFGF:LDH ratio ([2]; drug concentration 2 NM): 3.99

SMILES: CC[C@@]1(O)C(=O)OCc2c1cc1n(c2=O)Cc2cc3ccccc3nc2-1 [Camptothecin]
- IC50 [1, 3]: 5.03 nM
- IC50 [1, 4]: 11.4 nM
- IC50 [1, 5]: 17.2 nM
- Resistance, Folds, aFGF 0.3 ng/ml + bFGF 1 ng/ml [1, 6]: 2.26 Folds
- Resistance, Folds, aFGF 1 ng/ml + bFGF 3 ng/ml [1, 6]: 3.42 Folds
- IC50 [1, 7]: 4.8 nM
- IC50 [1, 8]: 5.4 nM
- IC50 [1, 9]: 5.78 nM
- Remaining cell number at 72 hours (% of control) ([2]; drug concentration 2 NM): 83%
- Remaining cell number at 72 hours × 10^6 ([2]; drug concentration 2 NM): 2.0 × 10^6
- Extracellular LDH, % of control ([2]; drug concentration 2 NM): 137 % of control
- Extracellular bFGF, % of control ([2]; drug concentration 2 NM): 145 % of control
- Extracellular concentration bFGF ([2]; drug concentration 2 NM): 9.08 pg/mL
- bFGF:LDH ratio ([2]; drug concentration 2 NM): 1.06
- Remaining cell number at 72 hours (% of control) ([2]; drug concentration 6 NM): 50%
- Remaining cell number at 72 hours × 10^6 ([2]; drug concentration 6 NM): 1.2 × 10^6
- Extracellular LDH, % of control ([2]; drug concentration 6 NM): 182 % of control
- Extracellular bFGF, % of control ([2]; drug concentration 6 NM): 221 % of control
- Extracellular concentration bFGF ([2]; drug concentration 6 NM): 13.9 pg/mL
- bFGF:LDH ratio ([2]; drug concentration 6 NM): 1.22
- Remaining cell number at 72 hours (% of control) ([2]; drug concentration 20 NM): 21%
- Remaining cell number at 72 hours × 10^6 ([2]; drug concentration 20 NM): 0.5 × 10^6
- Extracellular LDH, % of control ([2]; drug concentration 20 NM): 219 % of control
- Extracellular bFGF, % of control ([2]; drug concentration 20 NM): 279 % of control
- Extracellular concentration bFGF ([2]; drug concentration 20 NM): 17.5 pg/mL
- bFGF:LDH ratio ([2]; drug concentration 20 NM): 1.28

SMILES: O=P1(N(CCCl)CCCl)NCCCO1 (stereo not shown) [Cyclophosphamide]
- Resistance, Folds, aFGF 0.3 ng/ml + bFGF 1 ng/ml [1]: 2.18 Folds
- Resistance, Folds, aFGF 1 ng/ml + bFGF 3 ng/ml [1]: 3.00 Folds
- IC50 ([1]; Homo sapiens, 96 h, read-out: IC50, Control (drug treatment only, without FGF treatment), No suramin): 510 nM
- IC50 ([1]; Homo sapiens, 96 h, read-out: IC50, aFGF 0.3 ng/ml + bFGF 1 ng/ml, No suramin): 1110 nM
- IC50 ([1]; Homo sapiens, 96 h, read-out: IC50, aFGF 1 ng/ml + bFGF 3 ng/ml, No suramin): 1530 nM
- IC50 ([1]; read-out: IC50, Control (without FGF treatment), Suramin, 15 μM): 480 nM
- IC50 ([1]; read-out: IC50, aFGF 0.3 ng/ml + bFGF 1 ng/ml, With suramin): 570 nM
- IC50 ([1]; read-out: IC50, aFGF 1 ng/ml + bFGF 3 ng/ml, With suramin): 500 nM

SMILES: O=c1[nH]c(=O)n([C@@H]2O[C@H](CO)[C@@H](O)[C@H]2O)cc1F [5-Fluorouridine]
- IC50 [1, 3]: 280 nM
- IC50 [1, 4]: 440 nM
- IC50 [1, 5]: 700 nM
- Resistance, Folds, aFGF 0.3 ng/ml + bFGF 1 ng/ml [1, 6]: 1.57 Folds
- Resistance, Folds, aFGF 1 ng/ml + bFGF 3 ng/ml [1, 6]: 2.50 Folds
- IC50 [1, 8]: 330 nM
- IC50 [1, 9]: 290 nM

SMILES: N.N.O=C([O-])C1(C(=O)[O-])CCC1.[Pt+2] [Carboplatin]
- Resistance, Folds, aFGF 0.3 ng/ml + bFGF 1 ng/ml [1, 6]: 1.68 Folds
- Resistance, Folds, aFGF 1 ng/ml + bFGF 3 ng/ml [1, 6]: 4.04 Folds
- IC50 ([1]; read-out: IC50, Control (drug treatment only, without FGF treatment), No suramin, drug 96 hours): 2250 nM
- IC50 [1, 7]: 2110 nM
- IC50 ([1]; read-out: IC50, aFGF 0.3 ng/ml + bFGF 1 ng/ml, No suramin, FGF pretreatment 96 hours, drug 96 hours): 3790 nM
- IC50 [1, 8]: 2290 nM
- IC50 ([1]; read-out: IC50, aFGF 1 ng/ml + bFGF 3 ng/ml, No suramin, FGF pretreatment 96 hours, drug 96 hours): 9100 nM
- IC50 [1, 9]: 2310 nM

SMILES: N[C@@H](Cc1ccc(N(CCCl)CCCl)cc1)C(=O)O [Melphalan]
- IC50 [1, 3]: 4190 nM
- IC50 [1, 4]: 12800 nM
- IC50 [1, 5]: 24600 nM
- Resistance, Folds, aFGF 0.3 ng/ml + bFGF 1 ng/ml [1, 6]: 3.07 Folds
- Resistance, Folds, aFGF 1 ng/ml + bFGF 3 ng/ml [1, 6]: 5.87 Folds
- IC50 [1, 7]: 4020 nM
- IC50 [1, 8]: 4480 nM
- IC50 [1, 9]: 3970 nM

SMILES: NC(=O)c1csc([C@@H]2O[C@H](CO)[C@@H](O)[C@H]2O)n1 [Tiazofurin]
- IC50 [1, 3]: 7500 nM
- IC50 [1, 4]: 14600 nM
- IC50 [1, 5]: 19200 nM
- Resistance, Folds, aFGF 0.3 ng/ml + bFGF 1 ng/ml [1, 6]: 1.94 Folds
- Resistance, Folds, aFGF 1 ng/ml + bFGF 3 ng/ml [1, 6]: 2.57 Folds
- IC50 [1, 7]: 7900 nM
- IC50 [1, 8]: 7250 nM
- IC50 [1, 9]: 6150 nM
